The nature of series [1]: Stability / hygroscopicity at ambient room temperature and humidity. The format is physicochemical. The following applies: for stability at standard room temperature and humidity (ambient conditions): Preparation 3 after about 5 hours standing, TGA. The method, then: The partially dehydrated material was allowed to stand for about 5 hours.
For series [2] the following is noted: cited from earlier work.
A short description of series [3]: Solubility measured visually. The following applies: relative to crystalline lisinopril dihydrate (Zestril).

“Also recorded” adds a separate entry of the source. Where only a bound is given, the exact number is not on record here.

For the molecule `NCCCC[C@H](N[C@@H](CCc1ccccc1)C(=O)O)C(=O)N1CCC[C@H]1C(=O)O.O` [Preparation 3], the “stability at standard room temperature and humidity (ambient conditions)” value (“stability” below) in series [1] was “not a stable monohydrate”. In series [1] (crystals returned to room temperature after heating, evolved water reabsorbed from atmosphere), the hygroscopicity entry is on record as “strongly hygroscopic”.

On to `NCCCC[C@H](N[C@@H](CCc1ccccc1)C(=O)O)C(=O)N1CCC[C@H]1C(=O)O` [lisinopril], for which the “time to peak serum concentrations” value in series [2] (following oral administration) was no more than 7 h. The “effective half-life of accumulation” value in series [2] (multiple dosing) is “about 12.6 hours”.

`NCCCC[C@H](N[C@@H](CCc1ccccc1)C(=O)O)C(=O)N1CCC[C@H]1C(=O)O.O` [monohydrate lisinopril form 1]: in series [1] (listed as form 1), the “stability” value was “stable”.

With `NCCCC[C@H](N[C@@H](CCc1ccccc1)C(=O)O)C(=O)N1CCC[C@H]1C(=O)O` [monohydrate lisinopril form 2, 1-(N^2-[(S)-1-carboxy-3-phenylpropyl]-L-lysyl)-L-proline], the “stability” value in series [1] is given as “stable”. In addition, in “physchem”, the solubility was 400 to 450 mg/mL. Also, the “solubility compared with lisinopril dihydrate” value in series [3] was “far greater solubility; also recorded: much more soluble; also recorded: substantially more soluble”.

Source of the values: patent US6465615B1 (AstraZeneca AB, priority 2001, dated 2002).
